Experimental data as given in patent US11572341B2, “Biguanide compound and use thereof” (ImmunoMet Therapeutics Inc., priority 2014, dated 2023).
Like-named read-outs stand apart in the source and are kept apart here.

Tests used:
HCT116 cells = experiment: Inhibitory effect against cancer cell proliferation (MTT); format: cell-based, human; conditions: read-out: IC50 (uM) @ HCT116
Description: The formazane crystals thus formed were dissolved using dimethyl sulfoxide (DMSO) and absorbance of the solution was measured at 560 nm. After culturing for 48 hours, […] synthesized in Examples was indicated as cell viability (%) according to each treated concentration.

AMPKa [pT172] = experiment: AMPKa activation [pT172] in MCF7 cell; format: cell-based
[1] = Homo sapiens, HCT-116, HCT116, MTT, 48 hours

IC50 (HCT116 cells; [1]) [µM]	Structure (SMILES)	AMPKa activation [pT172] (Unit/ml) @ MCF7 cell (AMPKa [pT172]; 5 uM) [Unit/ml]	AMPKa activation [pT172] (Unit/ml) @ MCF7 cell (AMPKa [pT172]; 10 uM) [Unit/ml]	AMPKa activation [pT172] (Unit/ml) @ MCF7 cell (AMPKa [pT172]; 50 uM)	IC50 (HCT116 cells; HCT116, MTT, 48 hours) [µM]	IC50 (HCT116 cells; Homo sapiens, HCT-116, 48 h) [µM]
> 100	CN1CCN(C(=N)NC(=N)Nc2cc(F)cc(F)c2)CC1.Cl [Example 39, N1-(4-methyl)piperazin-N5-(3,5-difluoro)phenyl Biguanide Hydrochloride]	6.2	7.1	8.2 Unit/ml	–	–
8.6	CC1CCN(C(=N)NC(=N)Nc2ccc(Br)cc2)CC1.Cl [Example 48, N1-(4-methyl)piperidin-N5-(4-bromo)phenyl Biguanide Hydrochloride]	4.3	6.8	cell death	–	–
–	Cl.N=C(NC(=N)N1CCCC1)Nc1ccccc1C(F)(F)F [Example 75, N1-pyrrolidin-N5-(2-trifluoromethyl)phenyl Biguanide Hydrochloride]	3.5	3.6	5.3 Unit/ml	> 100	–
118	CCCNC(=N)NC(=N)N.Cl [Example 114, N1-propyl Biguanide Hydrochloride]	–	–	6.1 Unit/ml	–	–
2.3	CC1CCN(C(=N)NC(=N)Nc2ccc(Cl)c(C(F)(F)F)c2)CC1.Cl [Example 58, N1-(4-methyl)piperidin-N5-(3-trifluoromethyl-4-chloro)phenyl Biguanide Hydrochloride]	2.5	5.0	cell death	–	–
> 100	CN1CCN(C(=N)NC(=N)NCc2ccc(Cl)cc2)CC1.Cl [Example 31, N1-(4-methyl)piperazin-N5-(4-chloro)benzyl Biguanide Hydrochloride]	2.5	3.6	6.1 Unit/ml	–	–
> 100	CC1CCN(C(=N)NC(=N)Nc2ccc(CCN)cc2)CC1.Cl [Example 69, N1-(4-methyl)piperidin-N5-(4-aminoethyl)phenyl Biguanide Hydrochloride]	5.6	4.7	5.3 Unit/ml	–	–
35.1	CC(C)NC(=N)NC(=N)Nc1ccc(Cl)cc1.Cl [Example 17, N1-isopropyl-N5-(4-chloro)phenyl Biguanide Hydrochloride]	10.2	10.8	55.7 Unit/ml	–	–
> 100	CC(C)(C)N(Cc1ccccc1)C(=N)NC(=N)Nc1ccc(Cl)cc1.Cl [Example 10, N1-(4-chloro)phenyl-N5-t-butyl-N5-benzyl Biguanide Hydrochloride]	–	–	10.4 Unit/ml	–	–
> 100	CN1CCN(C(=N)NC(=N)Nc2cccc(F)c2)CC1.Cl [Example 28, N1-(4-methyl)piperazin-N5-(3-fluoro)phenyl Biguanide Hydrochloride]	7.7	9.2	7.9 Unit/ml	–	–
> 100	Cl.N=C(N)NC(=N)NCc1ccc2c(c1)OCO2 [Example 112, N1-(benzo[d][1,3]dioxol-5-yl)methyl Biguanide Hydrochloride]	–	–	10.6 Unit/ml	–	–
> 100	Cl.N=C(N)NC(=N)N1CCCC1 [Example 126, N1-pyrrolidine Biguanide Hydrochloride]	6.1	6.4	10.7 Unit/ml	–	–
> 100	Cl.N=C(N)NC(=N)N1CCCCCC1 [Example 139, N1-azepane Biguanide Hydrochloride]	5.7	5.8	10.9 Unit/ml	–	–
–	Cl.N=C(N)NC(=N)Nc1ccc(Cl)cc1 [Example 110, N1-(4-chloro)phenyl Biguanide Hydrochloride]	–	–	3.9 Unit/ml	–	97.2
14.1	Cl.N=C(N)N/C(=N/c1ccc(Br)cc1)NCCc1ccccc1 [Example 95, N1-phenethvl-N2-(4-bromo)phenyl Biguanide Hydrochloride]	4.9	6.8	23.6 Unit/ml	–	–
> 100	CC1CC(=O)N=C(NC(=N)N2CCCCC2)N1.Cl (stereo not drawn) [Example 154, N-(6-methyl-4-oxo-1,4,5-tetrahydropyrimidin-2-yl)piperidin-1-carboximidamide Hydrochloride]	2.9	2.9	2.8 Unit/ml	–	–
> 100	Cl.N=C(NC(=N)N1CC=CCC1)N1CC=CCC1 [Example 68, N1-1,2,3,6-tetrahydropyridin-N5-1,2,3,6-tetrahydropyridine Biguanide Hydrochloride]	4.2	4.4	4.4 Unit/ml	–	–
6.7	CC1CCN(C(=N)NC(=N)Nc2cccc(C(F)(F)F)c2)CC1.Cl [Example 50, N1-(4-methyl)piperidin-N5-(3-trifluoromethyl)phenyl Biguanide Hydrochloride]	8.3	11.5	cell death	–	–
> 100	CCCN(CCC)C(=N)NC(=N)N1CCCCC1.Cl [Example 8, N1,N1-dipropyl-N5-piperidine Biguanide Hydrochloride]	10.8	12.5	19.3 Unit/ml	–	–
2.5	CC1CC(C)CN(C(=N)NC(=N)Nc2ccc(F)c(C(F)(F)F)c2)C1.Cl (stereo not drawn) [Example 65, N1-(3,5-dimethyl)piperidin-N5-(3-trifluoromethyl-4-fluoro)phenyl Biguanide Hydrochloride]	15.0	20.1	cell death	–	–
41.7	CN1CCN(C(=N)NC(=N)Nc2ccc(C(F)(F)F)cc2)CC1.Cl [Example 19, N1-(4-methyl)piperazin-N5-(4-trifluoromethyl)phenyl Biguanide Hydrochloride]	3.3	4.3	15.3 Unit/ml	–	–
> 100	COc1ccc(NC(=N)NC(=N)N)cc1.Cl [Example 120, N1-(4-methoxy)phenyl Biguanide Hydrochloride]	–	–	8.1 Unit/ml	–	–
> 100	Cl.N=C(N)NC(=N)NCCc1ccc(Cl)cc1 [Example 137, N1-(4-chloro)phenethyl Biguanide Hydrochloride]	4.1	7.3	11.9 Unit/ml	–	–
130	CC1CCCN(C(=N)NC(=N)Nc2cnccn2)C1.Cl (stereo not drawn) [Example 47, N1-(3-methyl)piperidin-N5-pyrazin-2-yl Biguanide Hydrochloride]	2.8	3.8	5.3 Unit/ml	–	–
73.6	Cl.N=C(N)NC(=N)NCc1ccc(OC(F)(F)F)cc1 [Example 142, N1-(4-trifluoromethoxy)benzyl Biguanide Hydrochloride]	4.7	6.0	7.2 Unit/ml	–	–
> 100	CN1CCN(C(=N)NC(=N)Nc2ccc(F)cc2)CC1.Cl [Example 33, N1-(4-methyl)piperazin-N5-(4-fluoro)phenyl Biguanide Hydrochloride]	3.8	3.3	4.3 Unit/ml	–	–
–	Cl.N=C(NC(N)=NCCc1cccs1)N1CCCCC1 [Example 99, N1-piperidin-N2-(2-thiophen-2-yl)ethyl Biguanide Hydrochloride]	4.0	2.9	3.6 Unit/ml	> 100	–
> 100	CC(C)N(C(=N)NC(=N)N)C(C)C.Cl [Example 115, N1,N1-diisopropyl Biguanide Hydrochloride]	–	–	4.8 Unit/ml	–	–
> 100	Cl.N=C(N)NC(=N)NCc1ccc(Cl)cc1 [Example 129, N1-(4-chloro)benzyl Biguanide Hydrochloride]	9.2	7.0	11.4 Unit/ml	–	–
> 100	CN1CCN(C(=N)NC(=N)Nc2cc(F)c(F)c(F)c2)CC1.Cl [Example 40, N1-(4-methyl)piperazin-N5-(3,4,5-trifluoro)phenyl Biguanide Hydrochloride]	7.0	5.1	7.2 Unit/ml	–	–
